Measurements as given in US20030215462A1, “Use of UGT inhibitors to increase bioavailability” (priority 2001, published 2003).

Tests used:
[1] = system: UGT enzymes of human liver microsomes; assay: Inhibition of labetalol glucuronidation (LG1, LG2) in human liver microsomes; type: biochemical; details: labetalol 50 μM
[2] = system: UGT enzymes of human liver microsomes; assay: Inhibition of 7-HFC glucuronidation in human liver microsomes; type: biochemical; details: 7-HFC 50 μM, human liver microsomes 100 μg/ml, 15 min
[3] = system: UGT enzymes of human liver microsomes; assay: Inhibition of raloxifene glucuronidation (G1, G2) in human liver microsomes; type: biochemical; details: for % of control metabolism (SD, n = 3), raloxifene glucuronide G1 / % of control metabolism (SD, n = 3), raloxifene glucuronide G2: human liver microsomes 250 μg/ml, 15 min
Source text: Compounds were eluted using a binary solvent gradient system. […] Solvent B was methanol. […] Detection was at 280 nm.

[4] = system: UGT enzymes of human liver microsomes; assay: Inhibition of 2ME2 glucuronidation (MG1, MG2) in human liver microsomes; type: biochemical; details: liver 062101, 2ME2 50 μM
Source text: Compounds were eluted using a binary solvent gradient system where solvent A was dilute phosphoric acid (pH 3) and solvent B was 80:20 acetonitrile-methanol. […] Detection was at 280 nm.

[5] = molecular target: T1, UGT1A9 (Homo sapiens, UniProt O60656); assay: in vitro; details: pH 7.5, % of control metabolism
T1 sequence (O60656 26-530): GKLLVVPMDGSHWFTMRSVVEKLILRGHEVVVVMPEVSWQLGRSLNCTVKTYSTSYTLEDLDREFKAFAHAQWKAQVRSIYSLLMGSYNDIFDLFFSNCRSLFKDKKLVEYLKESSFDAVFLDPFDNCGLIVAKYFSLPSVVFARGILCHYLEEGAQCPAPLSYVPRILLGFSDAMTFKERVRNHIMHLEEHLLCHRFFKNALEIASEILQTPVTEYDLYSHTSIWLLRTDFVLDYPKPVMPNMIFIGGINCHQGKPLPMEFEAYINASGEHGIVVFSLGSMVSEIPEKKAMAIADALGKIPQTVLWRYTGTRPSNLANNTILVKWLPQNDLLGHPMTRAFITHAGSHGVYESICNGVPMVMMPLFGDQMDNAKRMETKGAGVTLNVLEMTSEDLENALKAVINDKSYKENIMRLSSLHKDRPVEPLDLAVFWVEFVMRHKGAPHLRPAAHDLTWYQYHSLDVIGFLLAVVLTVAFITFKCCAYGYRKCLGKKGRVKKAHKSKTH
Procedure: (§1) Compounds were eluted using a binary solvent gradient system. Solvent A was water brought to pH 8 with NH4OH. Solvent B was methanol. Solvent flow rate was 1 ml/min and the column temperature was maintained at 50° C. Detection was at 280 nm. […] The system was then returned to the initial conditions and equilibrated for 3 min.

[6] = molecular target: T2, UGT1A10 (Homo sapiens, UniProt Q9HAW8); assay: in vitro; details: pH 7.5, % of control metabolism
T2 sequence (Q9HAW8 26-530): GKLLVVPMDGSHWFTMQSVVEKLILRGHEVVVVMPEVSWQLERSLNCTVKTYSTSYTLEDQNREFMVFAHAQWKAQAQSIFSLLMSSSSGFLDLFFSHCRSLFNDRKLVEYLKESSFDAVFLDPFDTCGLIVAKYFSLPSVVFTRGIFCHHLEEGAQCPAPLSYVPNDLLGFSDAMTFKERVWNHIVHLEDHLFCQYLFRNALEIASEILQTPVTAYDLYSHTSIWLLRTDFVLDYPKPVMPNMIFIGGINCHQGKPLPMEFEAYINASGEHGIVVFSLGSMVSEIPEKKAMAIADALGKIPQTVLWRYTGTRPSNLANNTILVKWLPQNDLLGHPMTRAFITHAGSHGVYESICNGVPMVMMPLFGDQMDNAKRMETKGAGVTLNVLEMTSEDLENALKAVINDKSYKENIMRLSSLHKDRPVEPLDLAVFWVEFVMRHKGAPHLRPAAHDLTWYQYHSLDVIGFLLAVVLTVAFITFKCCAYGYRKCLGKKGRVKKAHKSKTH
Procedure: as §1

[7] = inhibitor 2 μM, raloxifene 50 μM
[8] = inhibitor 5 μM, raloxifene 50 μM
[9] = inhibitor 10 μM, raloxifene 50 μM
[10] = inhibitor 25 μM, raloxifene 50 μM
[11] = inhibitor 50 μM, raloxifene 50 μM
[12] = inhibitor 100 μM, raloxifene 50 μM
[13] = inhibitor 500 μM, raloxifene 50 μM
[14] = liver lot 032101, inhibitor 10 μM
[15] = liver lot 062101, inhibitor 10 μM
[16] = liver lot 083000, inhibitor 10 μM
[17] = raloxifene 50 μM, inhibitor 10 μM
[18] = raloxifene 50 μM, inhibitor 25 μM
[19] = raloxifene 50 μM, inhibitor 50 μM
[20] = raloxifene 50 μM, inhibitor 100 μM
[21] = liver lot 032101, inhibitor 50 μM
[22] = liver lot 062101, inhibitor 50 μM
[23] = liver lot 083000, inhibitor 50 μM

Row | % of control metabolism (SD, n = 3), raloxifene glucuronide G1 [3, 10] | % of control metabolism (SD, n = 3), raloxifene glucuronide G1 [3, 11] | % of control metabolism (SD, n = 3), raloxifene glucuronide G1 [3, 12] | % of control metabolism (SD, n = 3), raloxifene glucuronide G1 [3, 13] | % of control metabolism (SD, n = 3), raloxifene glucuronide G2 [3, 10] | % of control metabolism (SD, n = 3), raloxifene glucuronide G2 [3, 11] | % of control metabolism (SD, n = 3), raloxifene glucuronide G2 [3, 12] | % of control metabolism (SD, n = 3), raloxifene glucuronide G2 [3, 13] | % of control metabolism, raloxifene G1 [3, 18] | % of control metabolism, raloxifene G2 [3, 18] | % of control metabolism, raloxifene G1 [3, 19] | % of control metabolism, raloxifene G2 [3, 19] | % of control metabolism, raloxifene G1 [3, 20] | % of control metabolism, raloxifene G2 [3, 20] | SMILES | % of control metabolism (SD, n = 3), raloxifene glucuronide G1 [3, 9] | % of control metabolism (SD, n = 3), raloxifene glucuronide G2 [3, 9] | % of control metabolism, raloxifene G1 [3, 17] | % of control metabolism, raloxifene G2 [3, 17] | other results
1 | 36 (2) % | 14 (1) % | 8 (0) % | 0 (0) % | 100 (5) % | 58 (2) % | 43 (0) % | 0 (0) % | 36 (1) % | 100 (5) % | 14 (1) % | 58 (2) % | 8 (0) % | 43 (0) % | CC/C(=C(/CC)c1ccc(O)cc1)c1ccc(O)cc1 [Diethylstilbestrol, reference compound] | 58 (3) % | 111 (7) % | 58 (3) % | 111 (7) % | residual metabolism (percentage of control), labetalol LG1 ([1]; inhibitor 10 μM): 66 (6) %; residual metabolism (percentage of control), labetalol LG2 ([1]; inhibitor 10 μM): 68 (7) %; residual metabolism (percentage of control), labetalol LG1 ([1]; inhibitor 25 μM): 39 (1) %; residual metabolism (percentage of control), labetalol LG2 ([1]; inhibitor 25 μM): 45 (3) %; % of control metabolism (SD, n = 3), 7-HFC glucuronidation ([2]; inhibitor 5 μM): 90 (3) %; % of control metabolism (SD, n = 3), 7-HFC glucuronidation ([2]; inhibitor 10 μM): 80 (4) %; % of control metabolism (SD, n = 3), raloxifene glucuronide G1 [3, 7]: 94 (6) %; % of control metabolism (SD, n = 3), raloxifene glucuronide G1 [3, 8]: 83 (1) %; % of control metabolism (SD, n = 3), raloxifene glucuronide G2 [3, 7]: 107 (5) %; % of control metabolism (SD, n = 3), raloxifene glucuronide G2 [3, 8]: 109 (1) %; % of control metabolism, raloxifene G1 [3, 14]: 70 (2) %; % of control metabolism, raloxifene G2 [3, 14]: 96 (1) %; % of control metabolism, raloxifene G1 [3, 15]: 89 (2) %; % of control metabolism, raloxifene G2 [3, 15]: 83 (2) %; % of control metabolism, raloxifene G1 [3, 16]: 58 (3) %; % of control metabolism, raloxifene G2 [3, 16]: 111 (7) %; residual metabolism (% of control), 2ME2 MG1 ([4]; inhibitor 1 μM): 88 (2) %; residual metabolism (% of control), 2ME2 MG2 ([4]; inhibitor 1 μM): 335 (5) %; residual metabolism (% of control), 2ME2 MG1 ([4]; inhibitor 10 μM): 72 (2) %; residual metabolism (% of control), 2ME2 MG2 ([4]; inhibitor 10 μM): 632 (4) %
2 | – | – | – | 104 (11) % | – | – | – | 102 (4) % | – | – | – | – | – | – | CC(CCc1ccccc1)NCC(O)c1ccc(O)c(C(N)=O)c1 (stereo not drawn) [Labetalol, labetalol] | – | – | – | – | –
3 | 58 (4) % | 45 (6) % | 48 (2) % | 21 (1) % | 60 (4) % | 48 (6) % | 52 (3) % | 33 (2) % | 58 (4) % | 60 (4) % | 45 (6) % | 48 (6) % | 48 (2) % | 52 (3) % | CCCOC(=O)c1cc(O)c(O)c(O)c1 [Propyl gallate] | – | – | – | – | activity at 15 min, 50 µM ([5]; raloxifene G1): 48%; activity at 15 min, 50 µM ([5]; raloxifene G2): 51%; % of control metabolism (SD, n = 3), 7-HFC glucuronidation ([2]; inhibitor 1000 μM): 46 (1) %; % of control metabolism (SD, n = 3), 7-HFC glucuronidation ([2]; inhibitor 2000 μM): 32 (0) %; activity at 15 min, 50 µM ([6]; raloxifene G1): 80%; activity at 15 min, 50 µM ([6]; raloxifene G2): 72%

Row | SMILES | % of control metabolism (SD, n = 3), raloxifene glucuronide G1 [3, 10] | % of control metabolism (SD, n = 3), raloxifene glucuronide G1 [3, 11] | % of control metabolism (SD, n = 3), raloxifene glucuronide G1 [3, 12] | % of control metabolism (SD, n = 3), raloxifene glucuronide G1 [3, 13] | % of control metabolism (SD, n = 3), raloxifene glucuronide G2 [3, 10] | % of control metabolism (SD, n = 3), raloxifene glucuronide G2 [3, 11] | % of control metabolism (SD, n = 3), raloxifene glucuronide G2 [3, 12] | % of control metabolism (SD, n = 3), raloxifene glucuronide G2 [3, 13] | % of control metabolism, raloxifene G1 [3, 18] | % of control metabolism, raloxifene G2 [3, 18] | % of control metabolism, raloxifene G1 [3, 19] | % of control metabolism, raloxifene G2 [3, 19] | % of control metabolism, raloxifene G1 [3, 20] | % of control metabolism, raloxifene G2 [3, 20] | % of control metabolism (SD, n = 3), raloxifene glucuronide G1 [3, 9] | % of control metabolism (SD, n = 3), raloxifene glucuronide G2 [3, 9] | % of control metabolism, raloxifene G1 [3, 17] | % of control metabolism, raloxifene G2 [3, 17] | other results
4 | O=C(O[C@@H]1Cc2c(O)cc(O)cc2O[C@@H]1c1cc(O)c(O)c(O)c1)c1cc(O)c(O)c(O)c1 [Epigallocatechin gallate] | 56 (1) % | 46 (2) % | 22 (1) % | 0 (0) % | 63 (1) % | 50 (3) % | 27 (2) % | 0 (0) % | 56 (1) % | 63 (1) % | 46 (2) % | 50 (3) % | 22 (1) % | 27 (2) % | 85 (3) % | 82 (3) % | 85 (3) % | 82 (3) % | % of control metabolism, raloxifene G1 [3, 21]: 54 (2) %; % of control metabolism, raloxifene G2 [3, 21]: 50 (2) %; % of control metabolism, raloxifene G1 [3, 22]: 68 (2) %; % of control metabolism, raloxifene G2 [3, 22]: 41 (2) %; % of control metabolism, raloxifene G1 [3, 23]: 46 (2) %; % of control metabolism, raloxifene G2 [3, 23]: 50 (3) %
